From publication PMC10060577, “Synthesis and physicochemical characterization of acyl myricetins as potential anti-neuroexocytotic agents” (Scientific Reports, 2023)
Like-named read-outs stand apart in the source and are kept apart here.

What was measured:
[1] = Determination of 1-octanol/water partition coefficients (logP); type: physicochemical; settings: 1-octanol/water (DDW); 1-octanol/DDW, 25 °C
Experimental: Values for logP were determined to quantify the lipophilicity or hydrophilicity of the separated acyl myricetins, using the previously reported method with slight modifications. After the addition of 1-octanol (500 μL) into 2 mL micro-tubes containing 1 mg of the separated acyl myricetins, the micro-tubes were vortexed for 1 min, followed by sonication (bath-type) for 5 min, and then 500 μL of DDW was added to the tubes. Next, the mixed solutions in the tubes were vortexed again for 5 min and phase-separated by centrifugation (3000 relative centrifugal force for 10 min at 25 °C). The 40 μL of upper layer (1-octanol) and 100 μL of lower layer (DDW) were collected and diluted with 1.96 mL of 1-octanol and 100 μL of DMSO, respectively. The solutes dissolved in the upper and lower layers were quantified based on the standard curves obtained from the UV/Vis-light absorbance spectra (250‒600 nm) using a microplate reader (Synergy H1; BioTek Instruments Inc., VT, USA; measuring interval of 3 nm, at 25 °C). Finally, the logP values were calculated as log(coctanol/cDDW), where coctanol and cDDW are the concentrations of the solutes in the upper and lower layers, respectively.

[2] = Stability assessment against oxidation in aqueous solution by UV/Vis absorbance spectra; type: physicochemical; settings: PBS pH 7, 37 °C; for decay rate constant k: absorbance at 376 nm, exponential decay-plateau fitting
Experimental: To assess their stability in an aqueous environment at pH 7 and 37 °C, UV/Vis-light absorbance spectra of the separated acyl […] obtained using the Synergy H1 (BioTek Instruments Inc.; measuring interval of 3 nm, 25 °C), at a wavelength-range of 250-600 nm[34]. One hundred microliters of the separated esters (20 μg·mL^-1), dissolved in DMSO, were mixed in a micro-tube (2 mL) with 1.9 mL of phosphate buffered saline (PBS), pre-adjusted to pH 7 with 1 M HCl aqueous solution. After covering with a lid, the mixture was immediately incubated for 18 h in a heating shaking drybath (S08040; Thermo Scientific) at 37 °C, shaken at 700 rpm. […] The amount of non-oxidized acyl myricetin was determined, based on the absorbance ( abs ) at a wavelength of 376 nm at incubation time ( t ). An exponential decay-plateau fitting method was employed to determine decay rate constant values ( k , s^-1) for the acyl […] follows: ln(abs/abs0)=-[…]) where abs0 is the absorbance at the initiation of incubation and tp is the time in which the left side ( -kt ) reaches the plateau constant ( p ). The non-oxidized proportion of the esters, after all the incubation, was described as e^p . Monitoring the shift of specific peaks in the spectra for the acyl […] could be important for application in food and cosmetics because this can indirectly indicate color changes in the product, which would be unwelcomed to most of the customers. Therefore, the center of gravity in the spectra of the M esters was determined as follows, in order to monitor the shift of specific peaks Centerofgravitycg=∑(absiλi)/∑(absi) where absi is the absorbance at a specific wavelength ( λi , 300-400 nm). Based on the cg estimated during the incubations, the cg shifting rate ( k1 ) was determined using the two segment linear fitting curves as follows: […]1=[…] intercepts of linear curves for the left and right sides, respectively, t1 is the time that the left side ( k1t+cg1 ) takes to become the right side ( k2t+cg2 ), and k2 is an inclination of curve toward the right side.

[3] = test system: differentiated PC-12 cells; test: Acetylcholine release assay; type: cell-based; settings: 12 h incubation, read-out: EC50 (inhibition of acetylcholine release)
Experimental: PC-12 cells, obtained from Korean Cell Line Bank (KCLB, Seoul, Korea), were cultured in media containing 84% (v/v) RPMI 1640 medium, 10% (v/v) heat-inactivated horse serum, 5% (v/v) heat-inactivated FBS, and 1% (v/v) antibiotic-antimycotic (100×) solution, under humidified conditions (37 °C, 5% CO2). The culture medium was refreshed every other day. Prior to further experiments, the viability of the cells in passages 1-5 was assessed using the trypan blue exclusion test. Harvested PC-12 cells were seeded into 24-well plates coated with poly-D-[…] × 10^5 cells per well) and grown in the culture media for one day (37 °C, 5% CO2). […] GIBCO/Invitrogen) and incubated for 5 days. Then, the media were replaced with the low serum medium containing the acyl […] incubated for 12 h. Next, the acetylcholine released from the cells into the medium was quantified using an Acetylcholine Assay Kit (Fluorometric; Cell Biolabs, Inc., CA, USA) and the Synergy H1 (λex/λem, 530 nm/600 nm). Subsequently, using the Kit, the amount of released acetylcholine was determined by subtracting the basal level signal from the signal for sample-treated cells.

[4] = Neutral red uptake (NRU) cytotoxicity assay; type: cell-based; settings: rat, PC-12 cells, 12 h incubation
Experimental: (§1) PC-12 cells, obtained from Korean Cell Line Bank (KCLB, Seoul, Korea), were cultured in media containing 84% (v/v) RPMI 1640 medium, 10% (v/v) heat-inactivated horse serum, 5% (v/v) heat-inactivated FBS, and 1% (v/v) antibiotic-antimycotic (100×) solution, under humidified conditions (37 °C, 5% CO2). The culture medium was refreshed every other day. Prior to further experiments, the viability of the cells in passages 1-5 was assessed using the trypan blue exclusion test. Harvested PC-12 cells (~ 80% confluency per well) were seeded into 96-well plates coated with type I-collagen and grown in the culture media for one day (37 °C, 5% CO2). Cells were treated with media containing the acyl […] incubated for 12 h. The media were aspirated, and cells were then incubated for 2 h with 0.33% (w/v) neutral red dissolved in the media. After the incubation, the neutral red media were carefully withdrawn, and cells were rinsed twice with PBS at 37 °C and dried for 1 h. Next, neutral red contained in the dried cells was extracted and solubilized with a solution of 50% (v/v) ethanol, 49% (v/v) DDW, and 1% (v/v) acetic acid, by incubating for 10 min. Absorbance of the neutral red-containing solution at 540 nm was recoded using the Synergy H1. Cell viability was determined based on the absorbance of treated cells compared to that of untreated cells (without acyl […]).

[5] = test system: PC-12 cells; test: Neutral red uptake (NRU) cytotoxicity assay; type: cell-based; settings: 12 h incubation
Experimental: as §1

[6] = test system: hen egg chorioallantoic membrane; test: HET-CAM test (hen egg chorioallantoic membrane irritancy); type: in vivo, chicken; settings: 2 mL of 1 mg·mL^−1 solution, images 1 min after addition; for HET-CAM Score: graded from 0 (no irritation) to 3 (strong irritation)
Experimental: The HET-CAM is used for detecting ophthalmic irritancy in vivo[35]. For the HET-CAM, fertilized eggs were obtained from a local market in Korea and incubated for 10 days (37.5 °C and 45% humidity), by maintaining autorotation at 90°·h^−1 to ensure proper development and viability of the embryos. After incubation, the upper shell was cut in a circular shape, without damaging the inner membrane. Immediately after cutting, the inner membrane was carefully removed with forceps, to avoid injury to the blood vessels, and 2 mL of acyl myricetin solutions were placed on the CAM. Prior to the treatment, the solutions were prepared by mixing 1.9 mL of PBS and 100 μL of DMSO dissolving acyl myricetins, to prevent sedimentation of the crystalline solute. A mixture of PBS (1.9 mL) and DMSO (100 μL), and 1 M NaOH aqueous solution were used as negative and positive controls, respectively. Next, by turning an LED flashlight at the bottom of eggshell, CAM images were obtained 1 min after samples addition.
Based on the CAM images, the severity of any hemorrhage, blood-coagulation, and hyperemia was graded from 0 (no irritation) to 3 (strong irritation) according to a previously developed scoring method. We analyzed the CAM images using ImageJ (http://rsb.info.nih.gov/ij/) to prevent arbitrary judgments with respect to the previous scoring method; then we selected blood vessels in the CAM images, and measured hemorrhage, blood-coagulation, and hyperemia as follows. First, the CAM images were loaded individually into ImageJ, cropped to a fixed size to exclude the shell, and converted to grayscale. The CAM images, grayscaled with red stack, were adjusted using the MidGrey method, and the area fraction (%Area) values of black pixels in the adjusted CAM images were measured and recorded.

Molecule | logP at 5 min [1] | decay rate constant k [2] | EC50 ([3]; Rattus norvegicus) | CC50 at 12 h [4] | CC50 [5] | HET-CAM Description [6] | HET-CAM Score [6] | k value fold lower than that of myricetin [2] | times by which the myricetin cg shift is faster than that of the compound [2] | EC50 [3]
O=c1c(O)c(-c2cc(O)c(O)c(O)c2)oc2cc(O)cc(O)c12 [M, myricetin] | 1.34 ± 0.1 | 0.00037 s⁻¹ | 5.36 ± 0.2 µM | 65.4 µM | 66.4 ± 10.9 µM | Non irritant | 0 |  |  | 
monopropionyl-myricetin [MP1] |  | 0.0002 s⁻¹ |  |  |  | Non irritant | 0 | ~ 1.9 fold | ~ 2.4 fold | 3.84 ± 1.08 µM
[Na+].[OH-] [1 M NaOH, NaOH, reference compound] |  |  |  |  |  | Severe irritant | 3 |  |  | 
dipropionyl-myricetin [MP2] |  | 0.00013 s⁻¹ |  |  |  | Non irritant | 0 | 2.7 fold | 5.1 fold | 3.58 ± 0.75 µM
monooctanoyl-myricetin [MO1] |  | 0.00012 s⁻¹ |  |  |  | Non irritant | 0 | ~ 3.1 fold | ~ 2.3 fold | 2.51 ± 0.89 µM
